One assay addresses KRAS G12C (Homo sapiens, UniProt P01116, G12C). The assay is described as follows: GDP-GTP exchange assay (KRAS_G12C exchange). In kind it is biochemical. As to conditions: bodipy-GDP loaded KRAS G12C 2.5 nM, SOS1 150 nM, GppNHp; 2 hours pre-incubation, 2 hours reaction; read-out: G12C_exchange. The essentials: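 Fluorescence exchange of bodipy-GDP for GppNHp, SOS1-driven, read at 485/520 nm; IC50 from four-parameter variable-slope fit. Both mutants used 2.5 nM final labelled protein and a 2 h compound pre-incubation. G12C reaction had 500 uM GppNHp and 150 nM SOS1 for 2 h; G12D ran 4 h.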

The subject of assay [1] is MIA PaCa-2 (KRAS G12C) cells. The assay is described as follows: Cellular pERK HTRF assay (KRAS_G12C pERK). In kind it is cell-based, human. Particulars: Homo sapiens, MIA PaCa-2, 4 hours incubation, read-out: G12C_pERK. The essentials:
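MIA PaCa-2 cells plated overnight, then exposed to compound for 4 h at 37 °C (G12C compounds). Phospho-ERK1/2 measured in lysates by HTRF (665/620 nm) after overnight antibody incubation; IC50 from percent inhibition versus log concentration.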

pIC50: −log10 of the molar value.

Sequence of KRAS G12C (P01116 1-188 isoform P01116-2 G12C): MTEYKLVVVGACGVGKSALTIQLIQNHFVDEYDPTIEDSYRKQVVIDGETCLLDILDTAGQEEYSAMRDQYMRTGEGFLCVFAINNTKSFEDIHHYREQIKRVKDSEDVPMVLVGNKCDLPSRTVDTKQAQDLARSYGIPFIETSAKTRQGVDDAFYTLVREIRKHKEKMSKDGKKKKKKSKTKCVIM

Turning to `C=CC(=O)N1CC[C@H](n2nnc3c(N4CC(C)(N(C)C)C4)nc4c(F)c(-c5cccc(Cl)c5C)c(C(F)(F)F)cc4c32)C[C@H]1CC#N` (single isomer, unassigned) [Example 238a], the pIC50 (at KRAS G12C; in assay [1]) was at least 7.00 each time.
Consider `CC#CC(=O)N1CC[C@H](n2nnc3c(OC[C@@H]4CCCN4C)nc4c(F)c(-c5cccc(C)c5Cl)c(CCC#N)cc4c32)C[C@H]1CC#N` (single isomer, unassigned) [Example 242a], for which the pIC50 (on KRAS G12C; in assay [1]) was at least 7.00 throughout.
For `CC#CC(=O)N1CC[C@H](n2nnc3c(N4CC(C)(N(C)C)C4)nc4c(F)c(-c5cccc(Cl)c5OC)c(C(F)(F)F)cc4c32)C[C@H]1CC#N` (single isomer, unassigned) [Example 243b], the pIC50 (on KRAS G12C; in assay [1]) was at least 7.00 in each case.
On to `CC#CC(=O)N1CC[C@H](n2nnc3c(N4CC(C)(N(C)C)C4)nc4c(F)c(-c5cccc(C)c5OC)c(C(F)(F)F)cc4c32)C[C@H]1CC#N` (single isomer, unassigned) [Example 245a], for which the pIC50 (at KRAS G12C; in assay [1]) was at least 7.00 in each case.
On to `C=CC(=O)N1CC[C@H](n2cnc3c(N4CC(N(C)C)C4)nc4c(F)c(-c5c(C)c(Cl)cc6[nH]ncc56)c(Cl)cc4c32)C[C@H]1CC#N` (single isomer, unassigned) [Example 267a], for which the pIC50 (at KRAS G12C; in assay [1]) was at least 7.00 in each case.
In the case of `CC#CC(=O)N1CC[C@H](n2nnc3c(OC[C@@H]4CCCN4C)nc4c(Cl)c(-c5ccc(F)c6cccnc56)c(Cl)cc4c32)C[C@H]1CC#N` (single isomer, unassigned) [Example 270a], the pIC50 (on KRAS G12C; in assay [1]) was at least 7.00 in each case.
As for `C=CC(=O)N1CC[C@H](n2nnc3c(N4CC(N(C)C)C4)nc4c(Cl)c(-c5ccc(F)c6cccnc56)c(Cl)cc4c32)C[C@H]1CC#N` (single isomer, unassigned) [Example 271a], the pIC50 (at KRAS G12C; in assay [1]) was at least 7.00 each time.
For `C=CC(=O)N1CC[C@H](n2nnc3c(OC[C@@H]4CCCN4C)nc4c(Cl)c(-c5ccc(F)c6cccnc56)c(Cl)cc4c32)C[C@H]1CC#N` (single isomer, unassigned) [Example 276a], the pIC50 (at KRAS G12C; in assay [1]) was at least 7.00 in each case.
As for `CC#CC(=O)N1CC[C@H](n2nnc3c(N4CC(N(C)C)C4)nc4c(Cl)c(-c5cccc6cccnc56)c(Cl)cc4c32)C[C@H]1CC#N` (single isomer, unassigned) [Example 277a], the pIC50 (on KRAS G12C; in assay [1]) was at least 7.00 throughout.
Turning to `CC#CC(=O)N1CC[C@H](n2nnc3c(OC[C@@H]4CCCN4C)nc4c(Cl)c(-c5cccc6cccnc56)c(Cl)cc4c32)C[C@H]1CC#N` (single isomer, unassigned) [Example 279a], the pIC50 (on KRAS G12C; in assay [1]) was at least 7.00 throughout.
With `CC#CC(=O)N1CC[C@H](n2nnc3c(OC[C@@H]4CCCN4C)nc4c(Cl)c(-c5cc(F)cc6cccnc56)c(Cl)cc4c32)C[C@H]1CC#N` (single isomer, unassigned) [Example 280a], the pIC50 (on KRAS G12C; in assay [1]) was at least 7.00 each time.
As for `C=CC(=O)N1CC[C@H](n2nnc3c(N4CC(N(C)C)C4)nc4c(Cl)c(-c5cccc6cccnc56)c(Cl)cc4c32)C[C@H]1CC#N` (single isomer, unassigned) [Example 283a], the pIC50 (on KRAS G12C; in assay [1]) was at least 7.00 in each case.
With `C=CC(=O)N1CC[C@H](n2nnc3c(N4CC(N(C)C)C4)nc4c(Cl)c(-c5cc(F)cc6cccnc56)c(Cl)cc4c32)C[C@H]1CC#N` (single isomer, unassigned) [Example 284a], the pIC50 (at KRAS G12C; in assay [1]) was at least 7.00 throughout.
In the case of `C=CC(=O)N1CC[C@H](n2nnc3c(OC[C@@H]4CCCN4C)nc4c(Cl)c(-c5cccc6cccnc56)c(Cl)cc4c32)C[C@H]1CC#N` (single isomer, unassigned) [Example 288a], the pIC50 (at KRAS G12C; in assay [1]) was at least 7.00 in each case.
For the compound `C=CC(=O)N1CC[C@H](n2nnc3c(OC[C@@H]4CCCN4C)nc4c(Cl)c(-c5cc(F)cc6cccnc56)c(Cl)cc4c32)C[C@H]1CC#N` (single isomer, unassigned) [Example 289a], the pIC50 (on KRAS G12C; in assay [1]) was at least 7.00 in each case.
As for `C=CC(=O)N1CCC(n2cnc3c(N4CC(N(C)C)C4)nc4c(F)c(-c5cc(O)cc6ccccc56)c(Cl)cc4c32)CC1` [Example 9, 1-(4-(8-chloro-4-(3-(dimethylamino)azetidin-1-yl)-6-fluoro-7-(3-hydroxy-naphthalen-1-yl)-1H-imidazo[4,5-c]quinolin-1-yl)piperidin-1-yl)prop-2-en-1-one], the pIC50 on KRAS G12C is at least 7.00; in assay [1], 6.00 to 7.00.
In the case of `C=CC(=O)N1CCC(n2c(=O)[nH]c3c(OC[C@@H]4CCCN4C)nc4c(F)c(-c5cc(O)cc6ccccc56)c(Cl)cc4c32)CC1` [Example 10, 1-(1-Acryloylpiperidin-4-yl)-8-chloro-6-fluoro-7-(3-hydroxynaphthalen-1-yl)-4-(((S)-1-methylpyrrolidin-2-yl)methoxy)-1,3-dihydro-2H-imidazo[4,5-c]quinolin-2-one], the pIC50 at KRAS G12C is at least 7.00; in assay [1] it was 6.00 to 7.00.
Turning to `C=CC(=O)N1CCC(n2cnc3c(-c4cc(O)cc5ccccc45)nc4c(F)c(-c5cc(O)cc6ccccc56)c(Cl)cc4c32)CC1` [Example 11, 1-(4-(8-chloro-6-fluoro-4,7-bis(3-hydroxynaphthalen-1-yl)-1H-imidazo[4,5-c]quinolin-1-yl)piperidin-1-yl)prop-2-en-1-one], the pIC50 was at least 7.00 on KRAS G12C and 6.00 to 7.00 in assay [1].
On the same counts, the results for `C=CC(=O)N1CCC(n2cnc3c(-c4c(O)cccc4F)nc4c(F)c(-c5c(O)cccc5F)c(Cl)cc4c32)CC1` [Example 12, 1-(4-(8-chloro-6-fluoro-4,7-bis(2-fluoro-6-hydroxyphenyl)-1H-imidazo[4,5-c]-quinolin-1-yl)piperidin-1-yl)prop-2-en-1-one] are 6.00 to 7.00 and 5.30 to 6.00.
Turning to `C=CC(=O)N1CCC(n2cnc3cnc4c(F)c(-c5c(O)cccc5F)c(Cl)cc4c32)CC1` [Example 13, 1-(4-(8-Chloro-6-fluoro-7-(2-fluoro-6-hydroxyphenyl)-1H-imidazo[4,5-c]-quinolin-1-yl)piperidin-1-yl)prop-2-en-1-one], the pIC50 was 6.00 to 7.00 at KRAS G12C and 5.30 to 6.00 in assay [1].
The like results for `C=CC(=O)N1CC[C@H](n2cnc3c(N4CC(N(C)C)C4)nc4c(F)c(-c5cccc(C)c5C)c(Cl)cc4c32)C[C@H]1CC#N` [Example 16, 2-((2S,4S)-1-acryloyl-4-(8-chloro-4-(3-(dimethylamino)azetidin-1-yl)-7-(2,3-dimethylphenyl)-6-fluoro-1H-imidazo[4,5-c]quinolin-1-yl)piperidin-2-yl)acetonitrile] were, in that order, at least 7.00 and at least 7.00.
For the compound `C=CC(=O)N1CC[C@H](n2cnc3c(N4CC(N(C)C)C4)nc4c(F)c(-c5cccc(C#N)c5C)c(Cl)cc4c32)C[C@H]1CC#N` [Example 17, 3-(1-((2S,4S)-1-acryloyl-2-(cyanomethyl)piperidin-4-yl)-8-chloro-4-(3-(dimethylamino)azetidin-1-yl)-6-fluoro-1H-imidazo[4,5-c]quinolin-7-yl)-2-methylbenzonitrile], the pIC50 (on KRAS G12C; in assay [1]) was at least 7.00 throughout.
Regarding `C=CC(=O)N1CC[C@H](n2cnc3c(N4CC(N(C)C)C4)nc4c(F)c(-c5cccc(F)c5C)c(Cl)cc4c32)C[C@H]1CC#N` [Example 18, 2-((2S,4S)-1-acryloyl-4-(8-chloro-4-(3-(dimethylamino)azetidin-1-yl)-6-fluoro-7-(3-fluoro-2-methylphenyl)-1H-imidazo[4,5-c]quinolin-1-yl)piperidin-2-yl)acetonitrile], the pIC50 (at KRAS G12C; in assay [1]) was at least 7.00 throughout.
Turning to `C=CC(=O)N1CC[C@H](n2cnc3c(N4CC(N(C)C)C4)nc4c(F)c(-c5cccc(C)c5Cl)c(Cl)cc4c32)C[C@H]1CC#N` [Example 19, 2-((2S,4S)-1-acryloyl-4-(8-chloro-7-(2-chloro-3-methylphenyl)-4-(3-(dimethylamino)azetidin-1-yl)-6-fluoro-1H-imidazo[4,5-c]quinolin-1-yl)piperidin-2-yl)acetonitrile], the pIC50 (on KRAS G12C; in assay [1]) was at least 7.00 throughout.
Turning to `C=CC(=O)N1CC[C@H](n2cnc3c(N4CC(N(C)C)C4)nc4c(F)c(-c5ccccc5C)c(Cl)cc4c32)C[C@H]1CC#N` [Example 20, 2-((2S,4S)-1-acryloyl-4-(8-chloro-4-(3-(dimethylamino)azetidin-1-yl)-6-fluoro-7-(o-tolyl)-1H-imidazo[4,5-c]quinolin-1-yl)piperidin-2-yl)acetonitrile], the pIC50 (on KRAS G12C; in assay [1]) was at least 7.00 each time.
Turning to `C=CC(=O)N1CC[C@H](n2cnc3c(N4CC(N(C)C)C4)nc4c(F)c(-c5cc(O)cc6ccccc56)c(Cl)cc4c32)C[C@H]1C(N)=O` [Example 21, (2S,4S)-1-acryloyl-4-(8-chloro-4-(3-(dimethylamino)azetidin-1-yl)-6-fluoro-7-(3-hydroxynaphthalen-1-yl)-1H-imidazo[4,5-c]quinolin-1-yl)piperidine-2-carboxamide], the pIC50 (on KRAS G12C; in assay [1]) was at least 7.00 throughout.
Consider `C=CC(=O)N1CC[C@H](n2cnc3c(N4CC(N(C)C)C4)nc4c(F)c(-c5cc(O)cc6ccccc56)c(Cl)cc4c32)C[C@H]1C#N` [Example 22, (2S,4S)-1-acryloyl-4-(8-chloro-4-(3-(dimethylamino)azetidin-1-yl)-6-fluoro-7-(3-hydroxynaphthalen-1-yl)-1H-imidazo[4,5-c]quinolin-1-yl)piperidine-2-carbonitrile], for which the pIC50 (on KRAS G12C; in assay [1]) was at least 7.00 in each case.

(Values after patent US20210269434A1, “TRICYCLIC COMPOUNDS AS INHIBITORS OF KRAS” (Incyte Corporation, priority 2020, published 2021).)
